In paper PMC5622171 (Nature Communications, 2017):

Experiments:
Test in all cases: KINOMEscan kinase profiling
Format in all cases: binding
SRPK1 = biological target: T1, SRPK1 (Homo sapiens, UniProt Q96SB4); conditions: read-out: %Inhibition by 10 μM SPA70
T1 construct: purchased DiscoverX (Ambit Biosciences) KINOMEscan
Outline: (§1)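 KINOMEscan profiling followed a published protocol. Kinases whose inhibition exceeded a set cut-off were then tested in a dilution series beginning at 30 µM.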

NEK2 = biological target: T2, NEK2 (Homo sapiens, UniProt P51955); conditions: read-out: %Inhibition by 10 μM SPA70
T2 construct: purchased DiscoverX (Ambit Biosciences) KINOMEscan
Outline: as §1

MLK2 = biological target: T3, MLK2 (Homo sapiens, UniProt Q02779); conditions: read-out: %Inhibition by 10 μM SPA70
T3 construct: purchased DiscoverX (Ambit Biosciences) KINOMEscan
Outline: as §1

ALK = biological target: T4, ALK (Homo sapiens, UniProt Q9UM73); conditions: read-out: %Inhibition by 10 μM SPA70
T4 construct: purchased DiscoverX (Ambit Biosciences) KINOMEscan
Outline: as §1

MAPKAPK2 = biological target: T5, MAPKAPK2 (Homo sapiens, UniProt P49137); conditions: read-out: %Inhibition by 10 μM SPA70
T5 construct: purchased DiscoverX (Ambit Biosciences) KINOMEscan
Outline: as §1

PRKCI = biological target: T6, PRKCI (Homo sapiens, UniProt P41743); conditions: read-out: %Inhibition by 10 μM SPA70
T6 construct: purchased DiscoverX (Ambit Biosciences) KINOMEscan
Outline: as §1

ABL1-phosphorylated = biological target: T7, ABL1-phosphorylated (Homo sapiens, UniProt P00519); conditions: read-out: %Inhibition by 10 μM SPA70
T7 construct: purchased DiscoverX (Ambit Biosciences) KINOMEscan
Outline: as §1

SGK3 = biological target: T8, SGK3 (Homo sapiens, UniProt Q96BR1); conditions: read-out: %Inhibition by 10 μM SPA70
T8 construct: purchased DiscoverX (Ambit Biosciences) KINOMEscan
Outline: as §1

CLK4 = biological target: T9, CLK4 (Homo sapiens, UniProt Q9HAZ1); conditions: read-out: %Inhibition by 10 μM SPA70
T9 construct: purchased DiscoverX (Ambit Biosciences) KINOMEscan
Outline: as §1

CSNK1G3 = biological target: T10, CSNK1G3 (Homo sapiens, UniProt Q9Y6M4)
T10 construct: purchased DiscoverX (Ambit Biosciences) KINOMEscan
Outline: as §1

ARK5 = biological target: T11, ARK5 (Homo sapiens, UniProt O60285)
T11 construct: purchased DiscoverX (Ambit Biosciences) KINOMEscan
Outline: as §1

FYN = biological target: T12, FYN (Homo sapiens, UniProt P06241); conditions: read-out: %Inhibition by 10 μM SPA70
T12 construct: purchased DiscoverX (Ambit Biosciences) KINOMEscan
Outline: as §1

MST3 = biological target: T13, MST3 (Homo sapiens, UniProt Q9Y6E0)
T13 construct: purchased DiscoverX (Ambit Biosciences) KINOMEscan
Outline: as §1

[1] = biological target: T14, RPS6KA4(Kin.Dom.2-C-terminal) (Homo sapiens, UniProt O75676); conditions: read-out: %Inhibition by 10 μM SPA70
T14 construct: RPS6KA4(Kin.Dom.2-C-terminal); purchased DiscoverX (Ambit Biosciences) KINOMEscan
Outline: as §1

SRPK2 = biological target: T15, SRPK2 (Homo sapiens, UniProt P78362); conditions: read-out: %Inhibition by 10 μM SPA70
T15 construct: purchased DiscoverX (Ambit Biosciences) KINOMEscan
Outline: as §1

PIK3CG = biological target: T16, PIK3CG (Homo sapiens, UniProt P48736); conditions: read-out: %Inhibition by 10 μM SPA70
T16 construct: purchased DiscoverX (Ambit Biosciences) KINOMEscan
Outline: as §1

MAP4K5 = biological target: T17, MAP4K5 (Homo sapiens, UniProt Q9Y4K4); conditions: read-out: %Inhibition by 10 μM SPA70
T17 construct: purchased DiscoverX (Ambit Biosciences) KINOMEscan
Outline: as §1

DCAMKL3 = biological target: T18, DCAMKL3 (Homo sapiens, UniProt Q9C098); conditions: read-out: %Inhibition by 10 μM SPA70
T18 construct: purchased DiscoverX (Ambit Biosciences) KINOMEscan
Outline: as §1

IRAK1 = biological target: T19, IRAK1 (Homo sapiens, UniProt P51617); conditions: read-out: %Inhibition by 10 μM SPA70
T19 construct: purchased DiscoverX (Ambit Biosciences) KINOMEscan
Outline: as §1

ADCK4 = biological target: T20, ADCK4 (Homo sapiens, UniProt Q96D53); conditions: read-out: %Inhibition by 10 μM SPA70
T20 construct: purchased DiscoverX (Ambit Biosciences) KINOMEscan
Outline: as §1

ANKK1 = biological target: T21, ANKK1 (Homo sapiens, UniProt Q8NFD2); conditions: read-out: %Inhibition by 10 μM SPA70
T21 construct: purchased DiscoverX (Ambit Biosciences) KINOMEscan
Outline: as §1

MUSK = biological target: T22, MUSK (Homo sapiens, UniProt O15146); conditions: read-out: %Inhibition by 10 μM SPA70
T22 construct: purchased DiscoverX (Ambit Biosciences) KINOMEscan
Outline: as §1

DCAMKL1 = biological target: T23, DCAMKL1 (Homo sapiens, UniProt O15075)
T23 construct: purchased DiscoverX (Ambit Biosciences) KINOMEscan
Outline: as §1

IRAK4 = biological target: T24, IRAK4 (Homo sapiens, UniProt Q9NWZ3)
T24 construct: purchased DiscoverX (Ambit Biosciences) KINOMEscan
Outline: as §1

CASK = biological target: T25, CASK (Homo sapiens, UniProt O14936); conditions: read-out: %Inhibition by 10 μM SPA70
T25 construct: purchased DiscoverX (Ambit Biosciences) KINOMEscan
Outline: as §1

PFTK1 = biological target: T26, PFTK1 (Homo sapiens, UniProt O94921)
T26 construct: purchased DiscoverX (Ambit Biosciences) KINOMEscan
Outline: as §1

RIOK3 = biological target: T27, RIOK3 (Homo sapiens, UniProt O14730); conditions: read-out: %Inhibition by 10 μM SPA70
T27 construct: purchased DiscoverX (Ambit Biosciences) KINOMEscan
Outline: as §1

MAPKAPK5 = biological target: T28, MAPKAPK5 (Homo sapiens, UniProt Q8IW41); conditions: read-out: %Inhibition by 10 μM SPA70
T28 construct: purchased DiscoverX (Ambit Biosciences) KINOMEscan
Outline: as §1

MKNK2 = biological target: T29, MKNK2 (Homo sapiens, UniProt Q9HBH9); conditions: read-out: %Inhibition by 10 μM SPA70
T29 construct: purchased DiscoverX (Ambit Biosciences) KINOMEscan
Outline: as §1

IRAK3 = biological target: T30, IRAK3 (Homo sapiens, UniProt Q9Y616); conditions: read-out: %Inhibition by 10 μM SPA70
T30 construct: purchased DiscoverX (Ambit Biosciences) KINOMEscan
Outline: as §1

SRC = biological target: T31, SRC (Homo sapiens, UniProt P12931); conditions: read-out: %Inhibition by 10 μM SPA70
T31 construct: purchased DiscoverX (Ambit Biosciences) KINOMEscan
Outline: as §1

CAMK2G = biological target: T32, CAMK2G (Homo sapiens, UniProt Q13555); conditions: read-out: %Inhibition by 10 μM SPA70
T32 construct: purchased DiscoverX (Ambit Biosciences) KINOMEscan
Outline: as §1

MAST1 = biological target: T33, MAST1 (Homo sapiens, UniProt Q9Y2H9); conditions: read-out: %Inhibition by 10 μM SPA70
T33 construct: purchased DiscoverX (Ambit Biosciences) KINOMEscan
Outline: as §1

ULK1 = biological target: T34, ULK1 (Homo sapiens, UniProt O75385)
T34 construct: purchased DiscoverX (Ambit Biosciences) KINOMEscan
Outline: as §1

MEK1 = biological target: T35, MEK1 (Homo sapiens, UniProt Q02750); conditions: read-out: %Inhibition by 10 μM SPA70
T35 construct: purchased DiscoverX (Ambit Biosciences) KINOMEscan
Outline: as §1

NEK7 = biological target: T36, NEK7 (Homo sapiens, UniProt Q8TDX7); conditions: read-out: %Inhibition by 10 μM SPA70
T36 construct: purchased DiscoverX (Ambit Biosciences) KINOMEscan
Outline: as §1

[2] = biological target: T37, JAK1(JH2domain-pseudokinase) (Homo sapiens, UniProt P23458)
T37 construct: JAK1(JH2domain-pseudokinase); purchased DiscoverX (Ambit Biosciences) KINOMEscan
Outline: as §1

TRKA = biological target: T38, TRKA (Homo sapiens, UniProt P04629); conditions: read-out: %Inhibition by 10 μM SPA70
T38 construct: purchased DiscoverX (Ambit Biosciences) KINOMEscan
Outline: as §1

PIM2 = biological target: T39, PIM2 (Homo sapiens, UniProt Q9P1W9); conditions: read-out: %Inhibition by 10 μM SPA70
T39 construct: purchased DiscoverX (Ambit Biosciences) KINOMEscan
Outline: as §1

EPHB6 = biological target: T40, EPHB6 (Homo sapiens, UniProt O15197); conditions: read-out: %Inhibition by 10 μM SPA70
T40 construct: purchased DiscoverX (Ambit Biosciences) KINOMEscan
Outline: as §1

CDC2L2 = biological target: T41, CDC2L2 (Homo sapiens, UniProt Q9UQ88); conditions: read-out: %Inhibition by 10 μM SPA70
T41 construct: purchased DiscoverX (Ambit Biosciences) KINOMEscan
Outline: as §1

T4 sequence (Q9UM73 19-1620): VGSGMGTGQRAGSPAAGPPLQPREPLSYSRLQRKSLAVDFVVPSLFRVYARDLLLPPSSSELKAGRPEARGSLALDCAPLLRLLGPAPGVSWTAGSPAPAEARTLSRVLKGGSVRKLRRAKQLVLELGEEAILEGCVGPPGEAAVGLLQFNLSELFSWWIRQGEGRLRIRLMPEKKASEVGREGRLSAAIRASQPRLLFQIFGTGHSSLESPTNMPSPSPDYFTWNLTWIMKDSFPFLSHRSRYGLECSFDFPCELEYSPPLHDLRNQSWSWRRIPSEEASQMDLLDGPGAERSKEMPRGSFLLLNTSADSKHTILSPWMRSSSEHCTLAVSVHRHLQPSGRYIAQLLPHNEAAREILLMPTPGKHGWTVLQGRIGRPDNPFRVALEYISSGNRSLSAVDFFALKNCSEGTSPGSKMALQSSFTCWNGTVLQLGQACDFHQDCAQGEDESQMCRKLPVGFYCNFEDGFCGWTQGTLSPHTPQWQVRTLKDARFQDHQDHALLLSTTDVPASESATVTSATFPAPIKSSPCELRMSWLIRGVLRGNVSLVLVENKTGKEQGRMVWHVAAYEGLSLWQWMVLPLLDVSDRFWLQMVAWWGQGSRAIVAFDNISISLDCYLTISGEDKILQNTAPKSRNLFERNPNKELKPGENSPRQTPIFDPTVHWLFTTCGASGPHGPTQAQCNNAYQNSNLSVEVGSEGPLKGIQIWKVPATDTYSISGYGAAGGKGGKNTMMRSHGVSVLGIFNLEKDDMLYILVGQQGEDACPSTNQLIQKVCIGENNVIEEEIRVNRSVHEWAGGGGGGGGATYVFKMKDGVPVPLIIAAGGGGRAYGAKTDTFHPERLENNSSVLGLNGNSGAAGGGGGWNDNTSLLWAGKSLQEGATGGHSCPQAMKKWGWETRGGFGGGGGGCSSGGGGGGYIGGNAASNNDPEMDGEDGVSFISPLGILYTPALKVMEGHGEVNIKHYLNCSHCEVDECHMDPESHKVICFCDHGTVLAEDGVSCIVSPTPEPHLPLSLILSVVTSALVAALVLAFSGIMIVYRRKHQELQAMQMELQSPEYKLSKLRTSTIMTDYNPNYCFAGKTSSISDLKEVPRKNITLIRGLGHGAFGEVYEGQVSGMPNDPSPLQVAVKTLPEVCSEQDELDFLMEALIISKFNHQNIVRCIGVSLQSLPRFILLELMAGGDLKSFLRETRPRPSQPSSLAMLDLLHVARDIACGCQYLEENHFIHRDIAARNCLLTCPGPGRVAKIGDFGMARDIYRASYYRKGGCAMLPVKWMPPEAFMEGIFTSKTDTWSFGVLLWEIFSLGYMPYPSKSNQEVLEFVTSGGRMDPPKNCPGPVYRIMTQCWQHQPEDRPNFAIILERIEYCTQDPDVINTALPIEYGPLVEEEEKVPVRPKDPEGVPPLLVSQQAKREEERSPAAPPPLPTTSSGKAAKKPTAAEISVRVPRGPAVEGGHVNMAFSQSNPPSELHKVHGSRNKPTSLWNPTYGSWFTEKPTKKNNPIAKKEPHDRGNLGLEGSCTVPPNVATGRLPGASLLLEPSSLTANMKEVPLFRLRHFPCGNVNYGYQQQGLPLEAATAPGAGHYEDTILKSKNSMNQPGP
T3 sequence (Q02779 whole entry): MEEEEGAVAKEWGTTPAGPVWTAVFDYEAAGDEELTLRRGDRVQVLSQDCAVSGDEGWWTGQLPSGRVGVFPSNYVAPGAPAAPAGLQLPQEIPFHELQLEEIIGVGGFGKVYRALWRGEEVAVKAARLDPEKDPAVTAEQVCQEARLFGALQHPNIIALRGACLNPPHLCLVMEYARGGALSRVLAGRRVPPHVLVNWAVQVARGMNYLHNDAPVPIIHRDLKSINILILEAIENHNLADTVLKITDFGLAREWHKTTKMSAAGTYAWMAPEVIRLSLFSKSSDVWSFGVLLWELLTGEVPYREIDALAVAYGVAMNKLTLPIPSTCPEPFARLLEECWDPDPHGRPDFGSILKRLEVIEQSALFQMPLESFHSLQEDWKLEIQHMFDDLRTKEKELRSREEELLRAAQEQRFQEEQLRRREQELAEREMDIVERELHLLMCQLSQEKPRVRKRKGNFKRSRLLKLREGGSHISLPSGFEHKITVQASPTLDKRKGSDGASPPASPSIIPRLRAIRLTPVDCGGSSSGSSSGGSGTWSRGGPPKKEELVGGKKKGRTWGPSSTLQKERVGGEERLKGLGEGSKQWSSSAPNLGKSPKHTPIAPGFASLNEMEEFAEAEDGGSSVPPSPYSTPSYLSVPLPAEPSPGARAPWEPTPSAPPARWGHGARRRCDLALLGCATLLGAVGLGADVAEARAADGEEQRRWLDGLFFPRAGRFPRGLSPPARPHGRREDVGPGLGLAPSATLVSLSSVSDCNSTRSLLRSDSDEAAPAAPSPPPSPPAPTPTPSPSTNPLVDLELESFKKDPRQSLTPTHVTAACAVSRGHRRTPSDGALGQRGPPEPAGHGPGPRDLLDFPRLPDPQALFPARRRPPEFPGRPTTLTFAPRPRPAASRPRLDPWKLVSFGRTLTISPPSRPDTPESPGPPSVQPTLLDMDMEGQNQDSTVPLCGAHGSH
T12 sequence (P06241 whole entry): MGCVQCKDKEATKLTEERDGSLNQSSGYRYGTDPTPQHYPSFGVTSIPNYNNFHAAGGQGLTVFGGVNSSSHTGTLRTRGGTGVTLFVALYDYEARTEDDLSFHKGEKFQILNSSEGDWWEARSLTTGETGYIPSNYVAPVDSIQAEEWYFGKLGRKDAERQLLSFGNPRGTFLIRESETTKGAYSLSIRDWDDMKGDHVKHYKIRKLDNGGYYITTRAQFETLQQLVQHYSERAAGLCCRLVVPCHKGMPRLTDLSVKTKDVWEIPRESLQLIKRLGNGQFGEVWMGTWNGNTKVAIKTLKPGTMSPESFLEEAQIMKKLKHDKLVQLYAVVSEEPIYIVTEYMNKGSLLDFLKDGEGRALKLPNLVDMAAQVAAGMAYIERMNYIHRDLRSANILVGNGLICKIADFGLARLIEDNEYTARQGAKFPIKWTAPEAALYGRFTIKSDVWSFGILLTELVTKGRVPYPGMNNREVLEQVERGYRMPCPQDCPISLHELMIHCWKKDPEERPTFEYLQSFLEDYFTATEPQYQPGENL
T1 sequence (Q96SB4 whole entry): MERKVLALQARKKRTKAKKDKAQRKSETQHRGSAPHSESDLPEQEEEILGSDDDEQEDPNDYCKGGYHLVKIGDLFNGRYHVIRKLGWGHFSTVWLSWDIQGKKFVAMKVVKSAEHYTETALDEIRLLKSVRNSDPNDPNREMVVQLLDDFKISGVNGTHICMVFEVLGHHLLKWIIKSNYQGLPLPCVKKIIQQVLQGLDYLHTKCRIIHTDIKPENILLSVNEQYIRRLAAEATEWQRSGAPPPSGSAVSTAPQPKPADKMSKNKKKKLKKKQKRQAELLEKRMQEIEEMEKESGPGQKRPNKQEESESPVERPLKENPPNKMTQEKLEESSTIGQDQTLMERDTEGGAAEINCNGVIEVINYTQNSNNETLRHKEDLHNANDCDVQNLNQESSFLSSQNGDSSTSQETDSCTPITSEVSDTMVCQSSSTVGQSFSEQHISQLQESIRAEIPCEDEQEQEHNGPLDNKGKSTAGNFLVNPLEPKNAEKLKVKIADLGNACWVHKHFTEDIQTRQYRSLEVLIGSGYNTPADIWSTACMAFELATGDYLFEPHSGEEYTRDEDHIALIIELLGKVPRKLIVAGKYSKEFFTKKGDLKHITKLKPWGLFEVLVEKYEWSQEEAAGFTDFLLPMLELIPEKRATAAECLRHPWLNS
T16 sequence (P48736 whole entry): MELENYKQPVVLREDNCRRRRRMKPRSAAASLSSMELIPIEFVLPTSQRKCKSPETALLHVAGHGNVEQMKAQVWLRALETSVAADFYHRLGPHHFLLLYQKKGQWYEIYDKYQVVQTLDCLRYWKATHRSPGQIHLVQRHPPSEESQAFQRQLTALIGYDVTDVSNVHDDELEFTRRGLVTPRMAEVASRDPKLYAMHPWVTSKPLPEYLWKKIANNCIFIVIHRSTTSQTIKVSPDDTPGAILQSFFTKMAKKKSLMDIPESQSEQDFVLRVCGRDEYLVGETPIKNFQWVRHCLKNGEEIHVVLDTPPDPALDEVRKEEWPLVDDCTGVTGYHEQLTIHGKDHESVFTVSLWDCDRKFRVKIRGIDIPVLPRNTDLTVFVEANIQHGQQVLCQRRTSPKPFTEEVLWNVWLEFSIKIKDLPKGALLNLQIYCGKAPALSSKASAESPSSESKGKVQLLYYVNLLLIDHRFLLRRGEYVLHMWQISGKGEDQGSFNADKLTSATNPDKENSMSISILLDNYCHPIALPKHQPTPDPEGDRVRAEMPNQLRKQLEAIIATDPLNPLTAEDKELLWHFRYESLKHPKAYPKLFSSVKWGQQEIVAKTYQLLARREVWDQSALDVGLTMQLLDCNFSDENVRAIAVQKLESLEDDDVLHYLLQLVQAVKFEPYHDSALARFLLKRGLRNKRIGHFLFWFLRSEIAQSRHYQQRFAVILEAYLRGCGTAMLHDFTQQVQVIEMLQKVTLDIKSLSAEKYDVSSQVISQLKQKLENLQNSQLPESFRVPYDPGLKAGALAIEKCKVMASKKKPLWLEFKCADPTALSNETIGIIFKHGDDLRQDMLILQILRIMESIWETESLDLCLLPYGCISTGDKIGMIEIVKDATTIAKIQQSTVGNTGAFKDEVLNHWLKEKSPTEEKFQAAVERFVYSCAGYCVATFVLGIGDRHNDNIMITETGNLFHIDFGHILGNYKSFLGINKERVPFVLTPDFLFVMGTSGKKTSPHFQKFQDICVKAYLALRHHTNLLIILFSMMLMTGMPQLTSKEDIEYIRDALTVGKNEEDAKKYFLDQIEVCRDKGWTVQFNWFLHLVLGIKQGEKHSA

COc1ccc(OC)c(-n2nnc(S(=O)(=O)c3ccc(C(C)(C)C)cc3)c2C)c1 [SPA70]
inhibition at 10 µM (SRPK1): 0%
inhibition at 10 µM (NEK2): 4%
inhibition at 10 µM (MLK2): 0%
inhibition at 10 µM (ALK): 0%
inhibition at 10 µM (MAPKAPK2): 20%
inhibition at 10 µM (PRKCI): 0%
inhibition at 10 µM (ABL1-phosphorylated): 19%
inhibition at 10 µM (SGK3): 0%
inhibition at 10 µM (CLK4): 4%
%Inhibition by 10 μM SPA70 (CSNK1G3): 0%
%Inhibition by 10 μM SPA70 (ARK5): 41%
inhibition at 10 µM (FYN): 0%
%Inhibition by 10 μM SPA70 (MST3): 0%
inhibition at 10 µM [1]: 0%
inhibition at 10 µM (SRPK2): 0%
inhibition at 10 µM (PIK3CG): 9%
inhibition at 10 µM (MAP4K5): 0%
inhibition at 10 µM (DCAMKL3): 0%
inhibition at 10 µM (IRAK1): 0%
inhibition at 10 µM (ADCK4): 16%
inhibition at 10 µM (ANKK1): 0%
inhibition at 10 µM (MUSK): 0%
%Inhibition by 10 μM SPA70 (DCAMKL1): 0%
%Inhibition by 10 μM SPA70 (IRAK4): 0%
inhibition at 10 µM (CASK): 9%
%Inhibition by 10 μM SPA70 (PFTK1): 0%
inhibition at 10 µM (RIOK3): 24%
inhibition at 10 µM (MAPKAPK5): 12%
inhibition at 10 µM (MKNK2): 6%
inhibition at 10 µM (IRAK3): 15%
inhibition at 10 µM (SRC): 0%
inhibition at 10 µM (CAMK2G): 1%
inhibition at 10 µM (MAST1): 0%
%Inhibition by 10 μM SPA70 (ULK1): 5%
inhibition at 10 µM (MEK1): 11%
inhibition at 10 µM (NEK7): 0%
%Inhibition by 10 μM SPA70 [2]: 0%
inhibition at 10 µM (TRKA): 0%
inhibition at 10 µM (PIM2): 0%
inhibition at 10 µM (EPHB6): 0%
inhibition at 10 µM (CDC2L2): 9%
